Assay [1] deals with CD11b expression in THP-1 (AML) cells. The assay can be described thus: LSD1 CD11b cellular assay (flow cytometry). Type of assay: cell-based. As to conditions: THP-1 cells, 4 days. The procedure: To analyze LSD1 inhibitor efficacy in cells, a CDL11b flow cytometry assay was performed. LSD1 inhibition induces CD11b expression in THP-1 (AML) cells which can be measured by flow cytometry. […] LSD 1 test compounds were serially diluted in DMSO. The dilutions were added to each well accordingly to a final concentration of 0.2% DMSO. The cells were incubated at 37 degrees Celsius in 5% CO2 for 4 days. 250 μL of each well was transferred to a well in a 96 well round bottom plate. The plate was centrifuged at 1200 rpm at 4 degrees Celsius in a Beckman Coulter Alegra 6KR centrifuge for 5 minutes. The media was removed leaving the cells at the bottom of the wells. The cells were washed in 100 μL cold HBSS (Hank's Balanced Salt Solution) plus 2% BSA (Bovine Serum Albumin) solution and centrifuged at 1200 rpm at 4 degrees Celsius for 5 minutes. The wash was removed. […] The cells were centrifuged and washed two times in 100 μl HBSS plus 2% BSA. After the final spin the cells were resuspended in 100 μL HBSS plus 2% BSA containing 1 ug/mL DAPI (4′,6-diamidino-2-phenylindole). The cells were then analyzed by flow cytometry in a BD FACSAria machine. Cells were analyzed for CD11b expression. The percent of CD11b expressing cells for each inhibitor concentration was used to determine an IC50 curve for each compound analyzed.
Background: In flow cytometry, cells or beads pass a laser one at a time.

Another assay deals with full-length human LSD1 (Homo sapiens (Human), UniProt O60341). Kind of assay: In vitro enzyme inhibition assay LSD-1 (TR-FRET). As to conditions: H3K4me1-biotin peptide. Type of assay: biochemical. The procedure: This assay determines the ability of a test compound to inhibit LSD1 demethylase activity.
The enzymatic assay of LSD1 activity is based on Time Resolved-Fluorescence Resonance Energy Transfer (TR-FRET) detection.
Plates were read by EnVision Multilabel Reader in TR-FRET mode (excitation at 320 nm, emission at 615 nm and 665 nm) after 1 hour incubation at room temperature.
The ability of the compounds disclosed herein to inhibit LSD1 activity was quantified and the respective IC50 value was determined.

The source of these data is patent publication US10626103B2, “Inhibitor of lysine specific demethylase-1” (CELGENE QUANTICEL RESEARCH, INC., priority 2014, dated 2020).

For orientation: IC50 means the concentration that inhibits the measured activity by half. Read a high IC50 as weaker potency in that assay. In assay [1], `Cn1cc2cc(-c3c(-c4ccc(C#N)c(F)c4)cc(C(=O)NCC4CCNC4)n3C)ccc2n1` (stereo in doubt) [Example 33, N-[((3S)pyrrolidin-3-yl)methyl][4-(4-cyano-3-fluorophenyl)-1-methyl-5-(2-methyl(2H-indazol-5-yl))pyrrol-2-yl]carboxamide] came in with a concentration for half-maximal inhibition (IC50) of under 100 nM.

Regarding `Cc1ccc(-c2c(-c3ccc(C#N)cc3)cc(C(=O)N3CCC[C@@H](N)C3)n2C)cc1` [Example 1, 4-[5-(3-(R)-amino-piperidine-1-carbonyl)-1-methyl-2-p-tolyl-1H-pyrrol-3-yl]-benzonitrile], the IC50 is under 100 nM against full-length human LSD1 and under 100 nM in assay [1] (Homo sapiens, 96 h).

For `COc1ccc(-c2c(-c3ccc(C#N)c(F)c3)cc(C(=O)N3CCC[C@@H](N)C3)n2C)cc1` [Example 2, 4-[5-(3-(R)-amino-piperidine-1-carbonyl)-2-(4-methoxy-phenyl)-1-methyl-1H-pyrrol-3-yl]-2-fluoro-benzonitrile], the IC50 against full-length human LSD1 was under 100 nM; in assay [1] (Homo sapiens, 96 h), under 100 nM.

`Cc1ccc(-c2c(-c3ccc(C#N)cc3)cc(C(=O)N3CCC[C@@H](N)C3)n2CCO)cc1` [Example 3, 4-[5-(3-(R)-amino-piperidine-1-carbonyl)-1-(2-hydroxy-ethyl)-2-p-tolyl-1H-pyrrol-3-yl]-benzonitrile]: the half-maximal inhibitory concentration (IC50) against full-length human LSD1 is under 100 nM; in assay [1] (Homo sapiens, 96 h), under 100 nM.

Turning to `Cc1ccc(-c2c(-c3ccc(C#N)c(F)c3)cc(C(=O)N3CCC[C@@H](N)C3)n2CCO)cc1` [Example 4, 4-[5-(3-(R)-amino-piperidine-1-carbonyl)-1-(2-hydroxy-ethyl)-2-p-tolyl-1H-pyrrol-3-yl]-2-fluoro-benzonitrile], the concentration for half-maximal inhibition (IC50) against full-length human LSD1 is under 100 nM; in assay [1] (Homo sapiens, 96 h), under 100 nM.

Consider `Cc1ccc(-c2c(-c3ccc(C#N)cc3)cc(C(=O)N3CCC[C@@H](N)C3)n2C)cn1` [Example 5, 4-[5-(3-(R)-amino-piperidine-1-carbonyl)-1-methyl-2-(6-methyl-pyridin-3-yl)-1H-pyrrol-3-yl]-benzonitrile], for which the concentration for half-maximal inhibition (IC50) was under 100 nM against full-length human LSD1 and under 100 nM in assay [1] (Homo sapiens, 96 h).

Turning to `Cn1c(C(=O)N2CCC[C@@H](N)C2)cc(-c2ccc(C#N)cc2)c1-c1ccncc1` [Example 6, 4-[5-(3-(R)-amino-piperidine-1-carbonyl)-1-methyl-2-pyridin-4-yl-1H-pyrrol-3-yl]-benzonitrile], the half-maximal inhibitory concentration (IC50) is under 100 nM against full-length human LSD1 and under 100 nM in assay [1] (Homo sapiens, 96 h).

With `COc1ccc(-c2c(-c3ccc(C#N)cc3)cc(C(=O)N3CCC[C@@H](N)C3)n2CCO)cc1` [Example 7, 4-[5-(3-(R)-amino-piperidine-1-carbonyl)-1-(2-hydroxy-ethyl)-2-(4-methoxy-phenyl)-1H-pyrrol-3-yl]-benzonitrile], the concentration for half-maximal inhibition (IC50) against full-length human LSD1 was under 100 nM; in assay [1] (Homo sapiens, 96 h) it was under 100 nM.

On to `COc1ccc(-c2c(-c3ccc(C#N)c(F)c3)cc(C(=O)N3CCC[C@@H](N)C3)n2CCO)cc1` [Example 8, 4-[5-(3-(R)-amino-piperidine-1-carbonyl)-1-(2-hydroxy-ethyl)-2-(4-methoxy-phenyl)-1H-pyrrol-3-yl]-2-fluoro-benzonitrile], for which the IC50 against full-length human LSD1 was under 100 nM; in assay [1] (Homo sapiens, 96 h), under 100 nM.

On to `Cc1ccc(-c2c(-c3ccc(C#N)c(F)c3)cc(C(=O)N3CCC[C@@H](N)C3)n2CCCO)cc1` [Example 9], for which the half-inhibitory concentration (IC50) at full-length human LSD1 was under 100 nM; in assay [1] (Homo sapiens, 96 h) it was under 100 nM.

As to `Cn1c(C(=O)N2CCC[C@@H](N)C2)cc(-c2ccc(C#N)c(F)c2)c1-c1ccc2c(c1)ncn2C` [Example 10, 4-[5-(3-(R)-amino-piperidine-1-carbonyl)-1-methyl-2-(1-methyl-1H-benzoimidazol-5-yl)-1H-pyrrol-3-yl]-2-fluoro-benzonitrile], the IC50 is under 100 nM against full-length human LSD1 and under 100 nM in assay [1] (Homo sapiens, 96 h).

As to `COc1ccc(-n2c(-c3ccc(C#N)c(F)c3)nc(C(=O)N3CC[C@@H](N)C3)c2C)cc1` [Example 13, 4-[4-[(3R)-3-aminopyrrolidine-1-carbonyl]-1-(4-methoxyphenyl)-5-methylimidazol-2-yl]-2-fluorobenzonitrile], the half-inhibitory concentration (IC50) is under 100 nM on full-length human LSD1 and 100 to 1000 nM in assay [1] (Homo sapiens, 96 h).

In the case of `COc1ccc(-n2cc(C(=O)N3CCC[C@@H](N)C3)nc2-c2ccc(C#N)c(F)c2)cc1F` [Example 19, 4-[4-[(3R)-3-aminopiperidine-1-carbonyl]-1-(3-fluoro-4-methoxyphenyl)imidazol-2-yl]-2-fluorobenzonitrile], the half-inhibitory concentration (IC50) is under 100 nM on full-length human LSD1 and under 100 nM in assay [1] (Homo sapiens, 96 h).

Take `COc1ccc(-n2cc(C(=O)N3CC[C@H](N)C3)nc2-c2ccc(C#N)c(F)c2)cc1F` [Example 20, 4-[4-[(3S)-3-aminopyrrolidine-1-carbonyl]-1-(3-fluoro-4-methoxyphenyl)imidazol-2-yl]-2-fluorobenzonitrile]: the concentration for half-maximal inhibition (IC50) against full-length human LSD1 was under 100 nM; in assay [1] (Homo sapiens, 96 h), under 100 nM.

On to `Cc1c(C(=O)N2CC[C@H](N)C2)nc(-c2ccc(C#N)c(F)c2)n1-c1ccc2c(cnn2C)c1` [Example 24, 4-[4-[(3S)-3-aminopyrrolidine-1-carbonyl]-5-methyl-1-(1-methylindazol-5-yl)imidazol-2-yl]-2-fluorobenzonitrile], for which the IC50 was under 100 nM against full-length human LSD1 and under 100 nM in assay [1] (Homo sapiens, 96 h).

On to `Cn1cc2cc(-n3cc(C(=O)N4CCC[C@@H](N)C4)nc3-c3ccc(C#N)c(F)c3)ccc2n1` [Example 25, 4-[4-[(3R)-3-aminopiperidine-1-carbonyl]-1-(2-methylindazol-5-yl)imidazol-2-yl]-2-fluorobenzonitrile], for which, on full-length human LSD1, the IC50 is under 100 nM.

Consider `Cn1cc2cc(-n3cc(C(=O)N4CC[C@H](N)C4)nc3-c3ccc(C#N)c(F)c3)ccc2n1` [Example 26, 4-[4-[(3S)-3-aminopyrrolidine-1-carbonyl]-1-(2-methylindazol-5-yl)imidazol-2-yl]-2-fluorobenzonitrile], for which the IC50 on full-length human LSD1 is under 100 nM.

The molecule `Cn1ncc2cc(-n3cc(C(=O)N4CCC[C@@H](N)C4)nc3-c3ccc(C#N)c(F)c3)ccc21` [Example 27, 4-[4-[(3R)-3-aminopiperidine-1-carbonyl]-1-(1-methylindazol-5-yl)imidazol-2-yl]-2-fluorobenzonitrile] showed an IC50 against full-length human LSD1 of under 100 nM.

For `Cn1ncc2cc(-n3cc(C(=O)N4CC[C@H](N)C4)nc3-c3ccc(C#N)c(F)c3)ccc21` [Example 28, 4-[4-[(3S)-3-aminopyrrolidine-1-carbonyl]-1-(1-methylindazol-5-yl)imidazol-2-yl]-2-fluorobenzonitrile], the IC50 against full-length human LSD1 is under 100 nM.

For `Cn1cc2cc(-c3c(-c4ccc(C#N)c(F)c4)cc(C(=O)N4CCC[C@@H](N)C4)n3C)ccc2n1` [Example 29, 4-{5-[((3R)-3-aminopiperidyl)carbonyl]-1-methyl-2-(2-methyl(2H-indazol-5-yl))pyrrol-3-yl}-2-fluorobenzenecarbonitrile], the IC50 on full-length human LSD1 is under 100 nM; in assay [1] (Homo sapiens, 96 h), under 100 nM.

Take `COc1ccc(-c2c(-c3ccc(C#N)c(F)c3)cc(C(=O)N3CCC[C@@H](N)C3)n2CC(N)=O)cc1` [Example 37, (R)-2-(5-(3-aminopiperidine-1-carbonyl)-3-(4-cyano-3-fluorophenyl)-2-(4-methoxyphenyl)-1H-pyrrol-1-yl)acetamide]: at full-length human LSD1, the IC50 is under 100 nM.

`COc1ccc(-c2c(-c3ccc(C#N)c(F)c3)cc(C(=O)N3CCC[C@@H](N)C3)n2CCCC(=O)O)cc1` [Example 41, 4-{5-[((3R)-3-aminopiperidyl)carbonyl]-3-(4-cyano-3-fluorophenyl)-2-(4-methoxyphenyl)pyrrolyl}butanoic acid] yielded a half-inhibitory concentration (IC50) in assay [1] (Homo sapiens, 96 h) of 100 to 1000 nM.

The molecule `CN1CC[C@@H](NC(=O)c2cn(-c3ccc4nn(C)c(Cl)c4c3)c(-c3ccc(C#N)c(F)c3)n2)C1` [Example 106, 1-(3-Chloro-2-methylindazol-5-yl)-2-(4-cyano-3-fluorophenyl)-N-[(3R)-1-methylpyrrolidin-3-yl]imidazole-4-carboxamide] displayed an IC50 at full-length human LSD1 of under 100 nM.

As to `CN1CC[C@H](NC(=O)c2cn(-c3ccc4nn(C)c(Cl)c4c3)c(-c3ccc(C#N)c(F)c3)n2)C1` [Example 107, 1-(3-Chloro-2-methylindazol-5-yl)-2-(4-cyano-3-fluorophenyl)-N-[(3S)-1-methylpyrrolidin-3-yl]imidazole-4-carboxamide], at full-length human LSD1, the half-inhibitory concentration (IC50) is under 100 nM.

Consider `Cc1c(C(=O)N[C@@H]2CCN(C)C2)nc(-c2ccc(C#N)c(F)c2)n1-c1ccc2nn(C)cc2c1` [Example 108, 2-(4-Cyano-3-fluorophenyl)-5-methyl-1-(2-methylindazol-5-yl)-N-[(3R)-1-methylpyrrolidin-3-yl]imidazole-4-carboxamide], for which, at full-length human LSD1, the IC50 is under 100 nM.

In turn, `Cc1c(C(=O)N[C@H]2CCN(C)C2)nc(-c2ccc(C#N)c(F)c2)n1-c1ccc2nn(C)cc2c1` [Example 109, 2-(4-Cyano-3-fluorophenyl)-5-methyl-1-(2-methylindazol-5-yl)-N-[(3S)-1-methylpyrrolidin-3-yl]imidazole-4-carboxamide] registered an IC50 against full-length human LSD1 of under 100 nM.
